Measurements published in ChEMBL document CHEMBL1201862, “PubChem BioAssay data set” (2004).
Calls of active or inactive are those of the source.

Legend:
Albumin = Albumin (Bos taurus, UniProt P02769); assay: Counterscreen for inhibitors of T-cell receptor (TCR)-CD3 interaction: Fluorescence-based biochemical high throughput dose response assay to identify inhibitors of T-cell receptor (TCR)-CD3 interaction using a TAMRA-labeled BSA probe.; assay type: functional
Cytochrome P450 2C9 = Cytochrome P450 2C9 (Homo sapiens, UniProt P11712)
[1] = target: T1, COUP transcription factor 2 (Homo sapiens, UniProt P24468); assay: Luminescence-based cell-based high throughput dose response assay to identify inhibitors of COUP-TFII (NR2F2).; assay type: functional;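 also: HEK293 cells transiently cotransfected with COUP-TFII expression vector and reporter; luciferase reporter luminescence driven by COUP-TFII from the pX2-168 reporter plasmid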
T1 sequence (P24468 whole entry): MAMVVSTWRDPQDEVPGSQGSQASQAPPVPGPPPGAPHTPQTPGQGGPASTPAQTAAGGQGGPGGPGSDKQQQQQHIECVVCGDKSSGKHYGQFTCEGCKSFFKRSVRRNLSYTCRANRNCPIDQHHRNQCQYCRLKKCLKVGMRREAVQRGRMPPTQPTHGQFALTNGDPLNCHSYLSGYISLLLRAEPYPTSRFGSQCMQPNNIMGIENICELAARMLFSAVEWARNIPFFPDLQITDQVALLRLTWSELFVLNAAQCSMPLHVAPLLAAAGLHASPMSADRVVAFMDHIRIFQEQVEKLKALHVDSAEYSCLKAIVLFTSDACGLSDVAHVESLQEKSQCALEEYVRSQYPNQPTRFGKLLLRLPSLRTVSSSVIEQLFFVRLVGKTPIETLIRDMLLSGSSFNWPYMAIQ

cells [2] = assay type: functional, cell-based; conditions: HEK-CNG
Galanin receptor type 3 = Galanin receptor type 3 (Homo sapiens, UniProt O60755); assay: Fluorescence-based cell-based primary high throughput dose response assay to identify antagonists of the Galanin Receptor 3 (GalR3).; assay type: functional
[3] = general mammalian cell viability loss – inhibitor set, cherry-pick, set 2, cytotoxicity control for miR-122 modulator project, dose response (AID 720697); assay type: functional, cell-based
cells [4] = assay: cells
Major prion protein = Major prion protein (Homo sapiens, UniProt P04156); assay type: functional, cell-based
Caspase-6 = Caspase-6 (Homo sapiens, UniProt P55212); assay: inhibition of CASP6 peptide cleavage – biochemical, VEID-R110 fluorescence, cherry-pick, dose response (AID 720632)
[5] = target: T2, Sentrin-specific protease 8 (Homo sapiens, UniProt Q96LD8); assay type: functional;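 also: kinetic enzyme assay of SENP8 cleaving a Nedd8 protein substrate, dose-response confirmation of screening hits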
T2 sequence (Q96LD8 whole entry): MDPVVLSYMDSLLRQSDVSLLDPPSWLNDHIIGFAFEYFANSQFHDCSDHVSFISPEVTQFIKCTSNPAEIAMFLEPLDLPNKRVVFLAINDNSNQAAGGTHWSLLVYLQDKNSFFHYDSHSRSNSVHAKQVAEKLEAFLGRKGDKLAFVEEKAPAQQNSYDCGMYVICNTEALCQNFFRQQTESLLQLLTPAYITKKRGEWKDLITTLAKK

[6] = general cell-killing toxicity readout – plate reader, dry powder samples, cytotoxicity control for PAX8 inhibitor project, dose response (AID 743021); assay type: functional, cell-based
[7] = target: 1-phosphatidylinositol 4,5-bisphosphate phosphodiesterase beta-3 (Homo sapiens, UniProt Q01970); assay: Fluorescence-based biochemical high throughput dose response assay to identify inhibitors of phospholipase C isozymes (PLC-B3).
[8] = target: 1-phosphatidylinositol 4,5-bisphosphate phosphodiesterase gamma-1 (Homo sapiens, UniProt P19174); assay: Counterscreen for inhibitors of phospholipase C isozymes (PLC-B3): Fluorescence-based biochemical high throughput dose response assay to identify inhibitors of phospholipase C isozymes (PLC-gamma1).
[9] = target: T3, Low molecular weight phosphotyrosine protein phosphatase (Homo sapiens, UniProt P24666); assay type: functional; conditions: read-out: IC50_Mean
T3 sequence (P24666 whole entry): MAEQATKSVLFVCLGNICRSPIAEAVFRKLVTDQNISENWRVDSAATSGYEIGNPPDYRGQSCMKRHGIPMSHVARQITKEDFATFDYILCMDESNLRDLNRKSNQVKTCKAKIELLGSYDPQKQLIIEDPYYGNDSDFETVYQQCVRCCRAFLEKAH

[10] = target: T3, Low molecular weight phosphotyrosine protein phosphatase; assay type: functional; conditions: read-out: IC50_Mean; remark: listed apart in the source
Protein Wnt-3a = Protein Wnt-3a (Mus musculus, UniProt P27467); assay: SAR analysis of small molecule antagonists of Gli-SUFU in a Wnt3a luminescent reporter assay.; assay type: functional
[11] = T. cruzi growth inhibition in host cells, dose response, cell-based, plate reader, dry powder, set 2 (AID 652275); assay type: functional
[12] = target: T4, Probable nicotinate-nucleotide adenylyltransferase (Staphylococcus aureus (strain N315), UniProt P65502); assay type: functional, Staphylococcus aureus subsp. aureus N315;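 as to IC50 Mean: confirmatory dose-response retesting of NadD inhibitor hits first found in an ultra-high-throughput screen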
[13] = target: T4, Probable nicotinate-nucleotide adenylyltransferase; assay type: functional, Staphylococcus aureus subsp. aureus N315; conditions: read-out: IC50_Mean
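For EC50 in this document: target is galanin receptor GalR3 read with a cAMP biosensor in HEK293 cells.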

C=CCn1c(O)c(N=NC(=O)CNC(=O)/C=C/c2ccco2)c2ccccc21
IC50 (Albumin): > 94.1 µM (inactive)

NC(=O)c1nnn(Cc2cc(Cl)c(C(=O)c3ccc(Cl)cc3)c(Cl)c2)c1N [CARBOXYAMIDOTRIAZOLE]
AC50 (Cytochrome P450 2C9): inconclusive | IC50 [1]: 9.21 µM (active) | EC50 (cells [2]): > 29.9 µM (inactive) | IC50 (Galanin receptor type 3): 303 nM (active)

CN(C(=O)C12CC3CC(CC(C3)C1)C2)C1CCS(=O)(=O)C1 (stereo not drawn)
AC50 [3]: 1.42 µM (active)

CC(C)c1nc(SCC(=O)Nc2nccs2)c2ccccc2n1
IC50 (cells [4]): > 138 µM (inactive) | IC50 (Major prion protein): 2.4 µM (active)

O=[N+]([O-])c1cc(F)c2cccnc2c1O
AC50 (Caspase-6): 14.3 µM (active) | IC50 [5]: 12 µM (active)

CCOc1cc(C2Nc3ccccc3C(=O)N2c2ccccc2)c(Br)cc1OCC(=O)O (stereo not drawn)
IC50 (cells [4]): > 138 µM (inactive) | IC50 (Major prion protein): 10.1 µM (inactive)

Cc1ccc(NC(=S)N(CCCN2CCOCC2)Cc2ccccn2)cc1
AC50 [6]: 50.9 µM (active)

COc1ccc(CCN(C)C(=O)CN2C(=O)NC3(CCCc4ccccc43)C2=O)cc1OC (stereo not drawn)
IC50 [7]: > 122 µM (inactive) | IC50 [8]: > 122 µM (inactive)

CCc1nc(N)nc(N)c1-c1ccc(Cl)c(N=[N+]=[N-])c1
IC50 [9]: 13.4 µM (active) | IC50 [10]: 24.1 µM (inactive)

CC(C)(C)Nc1cc(NC(=O)c2ccccc2)ncn1
IC50 (Protein Wnt-3a): > 21.8 µM (inactive)

CC(C)N1CC2(CN(CCc3ccccc3)C2)Oc2c(NC(=O)c3ccncc3)cccc2C1=O
AC50 [11]: 252 nM (active)

O=C1NC[C@H](Cc2ccccc2)N(C[C@H]2CCCN2C[C@H](Cc2ccccc2)N2C[C@H](Cc3ccc(O)cc3)N(CC3CCCCCC3)C(=O)C2=O)C1=O
IC50 [12]: 11.6 µM (active) | IC50 [13]: 37.5 µM (active)

Cc1c(/N=C(\S)N/N=C/C=C/c2ccc([N+](=O)[O-])cc2)c(=O)n(-c2ccccc2)n1C
IC50 [7]: > 123 µM (inactive) | IC50 [8]: > 123 µM (inactive)
